Reference: publication PMC2119004 (The Journal of Experimental Medicine, 1991)
Blank lines part the entries; values can stand above or below the compound they belong to. Ends that are not written are not given here.

Legend:
I-Ed [1] = molecular target: T1, I-Ed (Mus musculus, UniProt P01904+P01915); assay: Binding of alkylated HEL; conditions: data not shown
[2] = tested on: Bb-6 and Bd-l.4 T cell hybridomas; assay: Stimulation of T cell hybridomas in the presence of live APC; assay type: cell-based, mouse; conditions: Fig. 2; for stimulation of T cells in the presence of live APC (in words): live TH2.2, serum-containing media, 24 h, HT-2 lymphokine assay
[3] = tested on: Bb-6 and Bd-l.4 T cell hybridomas; assay: Stimulation of T cell hybridomas by fixed APC; assay type: cell-based, mouse; conditions: for requirement of DTT for presentation by fixed APC (in words): Fig. 4, fixed TH2.2, 18 h at 37°C, 0.15 M citrate/phosphate, pH 5 (A(1-14) forms) or pH 6 (sulfonated A chain), ± 2 mM DTT
[4] = tested on: insulin-immune or A(1-14)-immune H-2d and H-2b lymph node lymphocytes; assay: Lymph node proliferation assay; assay type: cell-based, mouse; conditions: Fig. 6a,b; INS-primed BALB/c or C57BL/10 (H-2d, H-2b); 4 d, [3H]thymidine
I-Ad [5] = molecular target: I-Ad (Mus musculus, UniProt P01921+P04228); assay: Inhibition of biotin-Myo; assay type: binding; conditions: Fig. 7a; 1 mM DTT, 48 h
[6] = tested on: I-Ab-restricted beef insulin-reactive T cell clones; conditions: large panel of I-Ab-restricted beef insulin-reactive T cell clones; cited from earlier work
[7] = tested on: Bb-6 T cell hybridoma (I-Ab-restricted); conditions: cited from earlier work
[8] = tested on: Bd-l.4 T cell hybridoma (I-Ad-restricted); conditions: cited from earlier work
apamin-specific T cells = conditions: live APC; reduced and alkylated apamin; cited from earlier work
I-Ad [9] = molecular target: T2, I-Ad (Mus musculus, UniProt P01921+P04228); assay: Binding of biotinylated insulin to purified I-Ad; conditions: preliminary, data not shown; absence of reduction
T2 sequence (P01921 whole entry, looked up): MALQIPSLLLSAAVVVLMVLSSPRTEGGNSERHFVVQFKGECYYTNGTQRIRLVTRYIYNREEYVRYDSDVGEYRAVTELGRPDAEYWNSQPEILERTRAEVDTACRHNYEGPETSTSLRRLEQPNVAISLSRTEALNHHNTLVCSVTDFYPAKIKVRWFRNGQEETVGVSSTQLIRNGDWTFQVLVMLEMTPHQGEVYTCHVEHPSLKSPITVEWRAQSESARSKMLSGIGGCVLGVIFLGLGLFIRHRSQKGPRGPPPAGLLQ
T2 sequence (P04228 whole entry, looked up): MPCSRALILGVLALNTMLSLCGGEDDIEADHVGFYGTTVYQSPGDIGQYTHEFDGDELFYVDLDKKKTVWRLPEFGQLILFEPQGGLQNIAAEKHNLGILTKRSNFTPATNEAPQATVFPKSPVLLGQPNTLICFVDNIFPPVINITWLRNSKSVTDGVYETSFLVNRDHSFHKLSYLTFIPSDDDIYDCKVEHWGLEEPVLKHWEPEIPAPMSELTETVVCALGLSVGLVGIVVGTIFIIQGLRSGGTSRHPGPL

I-Ed [10] = molecular target: T1, I-Ed; assay: Inhibition of biotin-HEL; assay type: binding; conditions: Fig. 8b; 2 µM biotin-HEL(104-120)

T1 sequence (P01904 whole entry, looked up): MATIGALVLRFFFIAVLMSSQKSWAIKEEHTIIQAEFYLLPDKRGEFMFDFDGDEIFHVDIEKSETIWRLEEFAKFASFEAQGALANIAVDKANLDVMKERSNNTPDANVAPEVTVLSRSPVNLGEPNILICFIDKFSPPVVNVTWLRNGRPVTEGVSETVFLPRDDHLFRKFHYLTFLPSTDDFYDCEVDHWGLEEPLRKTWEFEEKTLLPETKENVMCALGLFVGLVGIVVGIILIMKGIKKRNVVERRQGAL
T1 sequence (P01915 whole entry, looked up): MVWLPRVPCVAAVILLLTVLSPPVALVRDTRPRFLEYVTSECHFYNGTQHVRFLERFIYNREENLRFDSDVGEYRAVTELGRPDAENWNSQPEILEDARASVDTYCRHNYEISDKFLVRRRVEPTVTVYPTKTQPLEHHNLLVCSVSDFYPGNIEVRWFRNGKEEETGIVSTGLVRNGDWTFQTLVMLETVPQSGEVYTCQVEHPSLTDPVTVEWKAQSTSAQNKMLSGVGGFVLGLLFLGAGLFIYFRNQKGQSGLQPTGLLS

Compound: GMNAWVAWRNRC- KGTDVY [HEL(104-120)]
effect of sulfhydryl alkylation on binding to I-Ed (in words) (I-Ed [1]): does not affect its capacity to bind purified FEd

Compound: rcamlNS: reduced and carboxyamidomethylated beef insulin
stimulation of T cells in the presence of live APC (in words) [2]: do not stimulate these T cells

Compound: air oxidized A(1-14): air-oxidized form of A(1-14) (GIVEQCCASVCSLY; disulfide (positions not given here); also: air-oxidized, interchain disulfides; UniProt P01317 85-98, looked up, fragment)
requirement of DTT for presentation by fixed APC (in words) [3]: disulfide reduction was required for presentation

Compound: FVNQHLCGSHLVEALYLVCG- ERGFFYTPKA [B(1-30)]
proliferation of beef insulin-immune lymphocytes (in words) [4]: but not to B chain

Compound: purified A chain from oxlNS: purified A chain from oxINS insulin
stimulation of T cells in the presence of live APC (in words) [2]: do not stimulate these T cells

inhibition of peptide binding by DTT alone (in words) (I-Ad [5]): did not inhibit peptide binding
Compound: O[C@@H](CS)[C@@H](O)CS (racemic) [DTT, dithiothreitol]

Compound: Sulfonated A chain: sulfonated A chain of beef insulin purified from sulfonated insulin by reverse-phase HPLC
fold lower concentration of intact insulin giving comparable stimulation ([2]; live APC, both I-Ab- and I-Ad-restricted T cells): 3-10 fold | requirement of DTT for presentation by fixed APC (in words) [3]: in the presence, but not the absence, of DTT were capable of stimulating Bd-l.4 and Bb-6 | fraction of T cell clones responding to sulfonated A chain but not performic acid-oxidized insulin [6]: > 90%

Compound: pork insulin: pork insulin
recognition by Bb-6 (in words) [7]: but not pork, insulin | recognition by Bd-l.4 (in words) [8]: partiallycrossreactivewith pork insulin

Compound: oxlNS: Performic acid-oxidized beef insulin
stimulation of T cells in the presence of live APC (in words) [2]: do not stimulate these T cells

Compound: apamin
T cells failing to recognize apamin after reduction and alkylation (apamin-specific T cells): 3/16

Compound: INS: Beef insulin purchased from Elanco Products Co.
molar excess of DTT to insulin disulfides at optimal response ([3]; Fig. 1b, fixed TH2.2, 33 µM INS): ~10 fold | DTT concentration for optimal T cell responses ([3]; Fig. 1b, fixed TH2.2, 18 h at 37°C in PBS, 33 µM INS): 0.1 to 1 mM | activation of T cells by fixed APC exposed to antigen and DTT (in words) ([3]; fixed TH2.2, overnight, 2 mM DTT): able to activate Bb-6 and Bd-l.4 T cells

binding of biotinylated insulin to I-Ad without reduction (in words) (I-Ad [9]): can bind to I-Ad
Compound: biotinylated insulin: biotinylated insulin

Compound: GIVEQCCASVCSLY [A(1-14)]
stimulation of T cells in the presence of live APC (in words) [2]: essentially inactive | inhibition of biotin-HEL(104-120) binding to I-Ed (in words) (I-Ed [10]): only at relatively high | potency relative to insulin/DTT with fixed APC (in words) ([3]; Fig. 3, fixed TH2.2): equivalent
